Experimental data: patent US12174198B2, “Methods of characterizing condensate-associated characteristics of compounds and uses thereof” (Dewpoint Therapeutics, Inc., priority 2019, dated 2024)

Assays:
Format in all cases: physicochemical
[1] = test system: FUS-SNAP condensates versus PGL-3 condensates; experiment: Condensate preference: ratio of FUS-SNAP I-in:I-out to PGL-3 I-in:I-out; settings: average FUS-SNAP I-in:I-out divided by average PGL-3 I-in:I-out
Description: (§1) The ratios of the average intensity measured in the target condensates and outside of the target condensates were calculated by dividing I-in by I-out, although dividing I-out by I-in could also have been used. The I-in:I-out ratios determined from the two different days of experiments were then averaged. The average I-in:I-out ratios for FUS-SNAP condensates are shown in FIG. 3 and the average I-in:I-out ratios for PGL-3 condensates are shown in FIG. 4. The standard deviation between the two experiments is represented by the error bars in FIG. 3 and FIG. 4.

PGL-3 condensates = molecular target: T1, PGL-3 condensates (Caenorhabditis elegans, UniProt G5EBV6); experiment: Fluorescence imaging of dye partitioning in PGL-3 condensates (I-in, I-out); settings: for Ratio of intensity inside:outside PGL-3 Condensates Day 1 / Ratio of intensity inside:outside PGL-3 Condensates Day 2 / Ratio of intensity inside:outside PGL-3 Condensates Average: I-in:I-out; for Ratio of intensity inside:outside PGL-3 Condensates Day 1 / Ratio of intensity inside:outside PGL-3 Condensates Day 2 / Ratio of intensity inside:outside PGL-3 Condensates Average / Intensity Inside with Dye Average / Intensity Inside with Dye 1 / Intensity Inside with Dye 2 / Intensity Inside with Dye 3 / Intensity Outside with Dye Average / Intensity Outside with Dye 1 / Intensity Outside with Dye 2 / Intensity Outside with Dye 3: 10 μM dye; for Ratio of intensity inside:outside PGL-3 Condensates Average: average of two days; for Intensity Inside with Dye Average / Intensity Inside with Dye 1 / Intensity Inside with Dye 2 / Intensity Inside with Dye 3 / Intensity Inside Dye-No Dye: inside PGL-3 condensate; for Intensity Inside with Dye Average / Intensity Inside with Dye 1 / Intensity Inside with Dye 2 / Intensity Inside with Dye 3 / Intensity Outside with Dye Average / Intensity Outside with Dye 1 / Intensity Outside with Dye 2 / Intensity Outside with Dye 3: 5 μM protein; for Intensity Inside with Dye Average / Intensity Outside with Dye Average: average of three images; for Intensity Inside with Dye Average / Intensity Inside with Dye 1 / Intensity Inside with Dye 2 / Intensity Inside with Dye 3 / Intensity Inside Dye-No Dye / Intensity Outside with Dye Average / Intensity Outside with Dye 1 / Intensity Outside with Dye 2 / Intensity Outside with Dye 3 / Intensity Outside (Dye-No Dye): one day of experiments; for Intensity Inside with Dye 1 / Intensity Outside with Dye 1: image 1; for Intensity Inside with Dye 2 / Intensity Outside with Dye 2: image 2; for Intensity Inside with Dye 3 / Intensity Outside with Dye 3: image 3; for Intensity Inside Dye-No Dye / Intensity Outside (Dye-No Dye): background corrected; for Intensity Outside with Dye Average / Intensity Outside with Dye 1 / Intensity Outside with Dye 2 / Intensity Outside with Dye 3 / Intensity Outside (Dye-No Dye): outside PGL-3 condensate
T1 sequence (G5EBV6 1-693): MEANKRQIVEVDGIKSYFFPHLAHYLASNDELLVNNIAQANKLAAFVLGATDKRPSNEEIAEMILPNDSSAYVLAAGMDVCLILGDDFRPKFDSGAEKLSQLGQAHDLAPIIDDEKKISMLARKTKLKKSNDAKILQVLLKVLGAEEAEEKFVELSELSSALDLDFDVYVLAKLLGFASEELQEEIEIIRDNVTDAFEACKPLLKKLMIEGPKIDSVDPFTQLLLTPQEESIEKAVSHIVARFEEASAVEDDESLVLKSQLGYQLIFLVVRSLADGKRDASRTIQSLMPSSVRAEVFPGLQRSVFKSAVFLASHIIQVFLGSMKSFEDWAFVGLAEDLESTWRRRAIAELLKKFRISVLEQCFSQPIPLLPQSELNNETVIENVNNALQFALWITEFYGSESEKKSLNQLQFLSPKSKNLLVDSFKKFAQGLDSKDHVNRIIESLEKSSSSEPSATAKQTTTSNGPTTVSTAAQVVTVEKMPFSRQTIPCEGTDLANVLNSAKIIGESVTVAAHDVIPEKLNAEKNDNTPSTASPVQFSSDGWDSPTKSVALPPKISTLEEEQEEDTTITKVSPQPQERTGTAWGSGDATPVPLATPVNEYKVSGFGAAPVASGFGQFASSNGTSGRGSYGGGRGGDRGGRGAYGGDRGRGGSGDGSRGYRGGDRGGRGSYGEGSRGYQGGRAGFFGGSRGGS
Description: (§2) All dye-stocks were stored as 1 mM solutions in 100% DMSO. The dyes were dissolved in dilution buffer (DB: 14.7 mM Tris, pH 7.25, 1 mM DTT) to yield 11.765 μM dye in 1.1765 DMSO. 17 μl of dye was distributed in a 384 well non-binding plate (Greiner).
(§3) Either SNAP-tagged FUS protein or tag-free PGL-3 protein was thawed at room temperature for at least 10 min, and the buffer was exchanged to partitioning buffer (PB: 50 mM Tris pH 7.25, 500 mM KCl, 5% Glycerol, and 1 mM DTT). The protein was then diluted to 33.3 μM in PB. 3 μl of protein solution were added to the 384 well plate to initiate phase separation, yielding 20 μl of 5 μM protein and 10 μM dye in 75 mM KCl, 0.75% Glycerol, 20 mM Tris, 1 mM DTT, and 1% DMSO or for no dye control reactions, 20 μl of 5 μM protein in 75 mM KCl, 0.75% Glycerol, 20 mM Tris, 1 mM DTT.
(§4) A spinning disk confocal microscope was used to acquire images of the samples. A 60×oil high-NA objective lens was used to capture the condensate droplets. The laser power was set to 20% and the exposure times were adjusted to the fluorescence emission intensity specific for each dye. Exposure times ranged from 1-1000 ms. Appropriate filter settings were used, matching the excitation and emission spectra of the respective dyes. Three images per well were taken. The background signal of protein droplets in the absence of dye was recorded for all applied imaging conditions.
(§5) Fluorescence intensity was measured inside one exemplary target condensate (Intensity inside, I-in) per image and in a region next to the exemplary target condensate (Intensity outside, I-out) by hand using the image analysis software Fiji. An example depicting the regions measured is shown FIG. 2A. Three I-in and three I-out values were measured in total for each dye in each experiment and were averaged. The measured I-in and I-out values for FUS-SNAP condensates on one day of experiments are shown in Table 2 and Table 3, respectively. The measured I-in and I-out values for PGL-3 condensates on one day of experiments are shown in Table 4 and Table 5, respectively. All values were background corrected, based on the background images (no dye controls) taken with the same microscope conditions.
as §1

FUS-SNAP condensates = molecular target: T2, FUS-SNAP condensates (Homo sapiens, UniProt P35637); experiment: Fluorescence imaging of dye partitioning in FUS-SNAP condensates (I-in, I-out); settings: for Ratio of intensity inside:outside FUS-SNAP Condensates Day 1 / Ratio of intensity inside:outside FUS-SNAP Condensates Day 2 / Ratio of intensity inside:outside FUS-SNAP Condensates Average: I-in:I-out; for Ratio of intensity inside:outside FUS-SNAP Condensates Day 1 / Ratio of intensity inside:outside FUS-SNAP Condensates Day 2 / Ratio of intensity inside:outside FUS-SNAP Condensates Average / Intensity Inside with Dye Average / Intensity Inside with Dye 1 / Intensity Inside with Dye 2 / Intensity Inside with Dye 3 / Intensity Outside with Dye Average / Intensity Outside with Dye 1 / Intensity Outside with Dye 2 / Intensity Outside with Dye 3: 10 μM dye; for Ratio of intensity inside:outside FUS-SNAP Condensates Average: average of two days; for Intensity Inside with Dye Average / Intensity Inside with Dye 1 / Intensity Inside with Dye 2 / Intensity Inside with Dye 3 / Intensity Inside Dye-No Dye: inside FUS-SNAP condensate; for Intensity Inside with Dye Average / Intensity Inside with Dye 1 / Intensity Inside with Dye 2 / Intensity Inside with Dye 3 / Intensity Outside with Dye Average / Intensity Outside with Dye 1 / Intensity Outside with Dye 2 / Intensity Outside with Dye 3: 5 μM protein; for Intensity Inside with Dye Average / Intensity Outside with Dye Average: average of three images; for Intensity Inside with Dye Average / Intensity Inside with Dye 1 / Intensity Inside with Dye 2 / Intensity Inside with Dye 3 / Intensity Inside Dye-No Dye / Intensity Outside with Dye Average / Intensity Outside with Dye 1 / Intensity Outside with Dye 2 / Intensity Outside with Dye 3 / Intensity Outside (Dye-No Dye): one day of experiments; for Intensity Inside with Dye 1 / Intensity Outside with Dye 1: image 1; for Intensity Inside with Dye 2 / Intensity Outside with Dye 2: image 2; for Intensity Inside with Dye 3 / Intensity Outside with Dye 3: image 3; for Intensity Inside Dye-No Dye / Intensity Outside (Dye-No Dye): background corrected; for Intensity Outside with Dye Average / Intensity Outside with Dye 1 / Intensity Outside with Dye 2 / Intensity Outside with Dye 3 / Intensity Outside (Dye-No Dye): outside FUS-SNAP condensate
T2 sequence (P35637 1-526): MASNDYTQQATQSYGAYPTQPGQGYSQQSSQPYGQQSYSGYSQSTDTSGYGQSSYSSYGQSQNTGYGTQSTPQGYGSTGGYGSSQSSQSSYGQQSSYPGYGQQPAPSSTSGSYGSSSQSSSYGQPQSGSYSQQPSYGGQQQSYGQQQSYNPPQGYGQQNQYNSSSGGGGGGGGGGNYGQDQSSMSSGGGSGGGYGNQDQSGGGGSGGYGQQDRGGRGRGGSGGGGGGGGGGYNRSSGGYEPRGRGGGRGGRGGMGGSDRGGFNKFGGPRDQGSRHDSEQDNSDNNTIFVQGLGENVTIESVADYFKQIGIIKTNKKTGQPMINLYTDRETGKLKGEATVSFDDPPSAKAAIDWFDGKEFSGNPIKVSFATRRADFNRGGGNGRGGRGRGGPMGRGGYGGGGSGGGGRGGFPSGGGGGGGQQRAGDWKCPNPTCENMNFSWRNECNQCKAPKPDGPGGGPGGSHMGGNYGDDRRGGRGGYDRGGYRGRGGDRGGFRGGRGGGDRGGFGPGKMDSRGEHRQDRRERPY
Description: as §2, §3, §4, §5, §1

Row | Intensity Inside with Dye Average (PGL-3 condensates) | Intensity Inside with Dye 1 (PGL-3 condensates) | Intensity Inside with Dye 2 (PGL-3 condensates) | Intensity Inside with Dye 3 (PGL-3 condensates) | Intensity Inside Dye-No Dye (PGL-3 condensates) | Intensity Outside with Dye Average (PGL-3 condensates) | Intensity Outside with Dye 1 (PGL-3 condensates) | Intensity Outside with Dye 2 (PGL-3 condensates) | Intensity Outside with Dye 3 (PGL-3 condensates) | Intensity Outside (Dye-No Dye) (PGL-3 condensates) | Intensity Inside with Dye Average (FUS-SNAP condensates) | Intensity Inside with Dye 1 (FUS-SNAP condensates) | Intensity Inside with Dye 2 (FUS-SNAP condensates) | Molecule | Ratio of FUS-SNAP:PGL-3 [1] | Ratio of intensity inside:outside PGL-3 Condensates Day 1 (PGL-3 condensates) | Ratio of intensity inside:outside PGL-3 Condensates Day 2 (PGL-3 condensates) | Ratio of intensity inside:outside PGL-3 Condensates Average (PGL-3 condensates) | Ratio of intensity inside:outside FUS-SNAP Condensates Day 1 (FUS-SNAP condensates) | Ratio of intensity inside:outside FUS-SNAP Condensates Day 2 (FUS-SNAP condensates) | Ratio of intensity inside:outside FUS-SNAP Condensates Average (FUS-SNAP condensates) | further results
1 | 3038.9 | 2939.4 | 3141.8 | 3035.4 | 2892.4 | 2837.5 | 2781.8 | 2905.7 | 2825.1 | 2732.2 | 4669.4 | 4600.2 | 4189.8 | O=C(CCCC[C@@H]1SCC2NC(=O)NC21)NCCNC(=O)c1ccc(-c2c3ccc(=O)cc-3oc3ccc(O)cc23)c(C(=O)O)c1 (stereo partly shown) [Dye 13, Biotin-4-Fluorescein] | 2.0 | 1.1 | 1.1 | 1.1 | 2.1 | 2.1 | 2.1 | Intensity Inside with Dye 3 (FUS-SNAP condensates): 5218.3; Intensity Inside Dye-No Dye (FUS-SNAP condensates): 4534.2; Intensity Outside with Dye Average (FUS-SNAP condensates): 2242.3; Intensity Outside with Dye 1 (FUS-SNAP condensates): 2286.6; Intensity Outside with Dye 2 (FUS-SNAP condensates): 2244.6; Intensity Outside with Dye 3 (FUS-SNAP condensates): 2195.6; Intensity Outside (Dye-No Dye) (FUS-SNAP condensates): 2138.2
2 | 5674.9 | 5747.5 | 6281.4 | 4996.0 | 5528.4 | 5893.8 | 5900.4 | 6581.6 | 5199.5 | 5788.5 | 5756.6 | 6139.7 | 6105.5 | Polysucrose 40-fluorescein isothiocyanate conjugate [Dye 10] | 1.1 | 1.0 | 0.9 | 0.9 | 1.0 | 1.1 | 1.1 | Enrichment of dye in the condensate (fluorescent images) (FUS-SNAP condensates; FIG. 1, exemplary images of Example 2, condensate type not stated): not enriched in the condensate; Intensity Inside with Dye 3 (FUS-SNAP condensates): 5024.6; Intensity Inside Dye-No Dye (FUS-SNAP condensates): 5621.4; Intensity Outside with Dye Average (FUS-SNAP condensates): 5505.3; Intensity Outside with Dye 1 (FUS-SNAP condensates): 5878.5; Intensity Outside with Dye 2 (FUS-SNAP condensates): 5846.2; Intensity Outside with Dye 3 (FUS-SNAP condensates): 4791.0; Intensity Outside (Dye-No Dye) (FUS-SNAP condensates): 5401.2
